Like-named read-outs stand apart in the source and are kept apart here.
Experiments:
[1] = tested on: obese/diabetic KK-Ay mice; design: method as in PMID 24391749; settings: cited from earlier work
[2] = tested on: peroxisome proliferator-activated receptors (PPARs); design: method as in PMID 30827999; settings: cited from earlier work
[3] = tested on: Bacillus subtilis (ATCC6633); design: method as in PMID 23651559; settings: cited from earlier work
Candida albicans = tested on: Candida albicans; design: method as in PMID 33971509; settings: cited from earlier work
α-glucosidase = assay: α-Glucosidase inhibition assay (pNPG substrate); format: biochemical; settings: means ± SD of three replicates
Description: The inhibitory activity of α-glucosidase was determined according to the modified method with a readily available enzyme. In a typical procedure, α-glucosidase (0.1 U/mL, Wako) was dissolved in 100 mM sodium phosphate buffer (pH 6.8) and used as an enzyme solution. A total of 1 mM p-Nitrophenyl-α-D-glucopyranoside (pNPG) in the same buffer (pH 6.8) was used as a substrate solution. […] After substrate solution (95 μL) was added, the sample solution was incubated for another 10 min at 37 °C incubator. Enzymatic activity was quantified by measuring absorbance at 405 nm using an enzyme-linked immunosorbent assay (ELISA) microplate reader (D.I Biotech Ltd., Seoul, Korea).

[4] = tested on: experimental liver cancer cells in rats; design: method as in ref 32 = [32]; 32. Bai J.W. Zhang Y. Yang M.J. Effects of schinifoline on cytoskeleton of experimental hepatoma in rats observed by whole mount cell transmission electron microscopy Beijing Zhongyiyao Daxue Xuebao 2; settings: by influencing cytoskeleton; cited from earlier work
BEL7403 = tested on: BEL7403; design: method as in PMID 23651559; settings: BEL7403, MTT method; cited from earlier work
[5] = tested on: experimental hepatocarcinogenesis; design: method as in ref 33 = [33]; 33. Bai J.W. Zhang Y. Wu J. Flow cytometric analysis of the schinifoline inhibition on rat hepatoma cell induced by DEN Beijing Zhongyiyao Daxue Xuebao 1999 22 34 35; settings: by inhibiting hepatoma cell's DNA synthesis; cited from earlier work
A549 cells [6] = tested on: A549 cells; design: method as in PMID 25470278; settings: applied before 60Co γ-irradiation; cited from earlier work
BEL7402 = tested on: BEL7402; design: method as in PMID 23651559; settings: BEL7402, MTT method; cited from earlier work
[7] = tested on: Staphylococcus epidermidis (ATCC12228); design: method as in PMID 23651559; settings: cited from earlier work
[8] = tested on: Staphyloccocus aureus (ATCC25923); design: method as in PMID 23651559; settings: cited from earlier work
[9] = tested on: Jurkat T cells clone E6.1; design: method as in doi:10.5012/bkcs.2010.31.04.1081; settings: Jurkat T cells clone E6.1, MTT method; cited from earlier work
A549 cells [10] = tested on: A549 cells; design: method as in PMID 25470278; settings: cited from earlier work
Hela = tested on: Hela; design: method as in PMID 23651559; settings: MTT method; cited from earlier work
[11] = target: T1, Protein tyrosine phosphatase 1B (human recombinant) (Homo sapiens, UniProt P18031); assay: Protein tyrosine phosphatase 1B inhibition assay (p-NPP substrate); format: biochemical; settings: means ± SD of three replicates; read-out: PTP1B IC50
T1 construct: purchased Biomol International LP, Plymouth Meeting, Pennsylvania, PA, USA
T1 sequence (P18031 1-435): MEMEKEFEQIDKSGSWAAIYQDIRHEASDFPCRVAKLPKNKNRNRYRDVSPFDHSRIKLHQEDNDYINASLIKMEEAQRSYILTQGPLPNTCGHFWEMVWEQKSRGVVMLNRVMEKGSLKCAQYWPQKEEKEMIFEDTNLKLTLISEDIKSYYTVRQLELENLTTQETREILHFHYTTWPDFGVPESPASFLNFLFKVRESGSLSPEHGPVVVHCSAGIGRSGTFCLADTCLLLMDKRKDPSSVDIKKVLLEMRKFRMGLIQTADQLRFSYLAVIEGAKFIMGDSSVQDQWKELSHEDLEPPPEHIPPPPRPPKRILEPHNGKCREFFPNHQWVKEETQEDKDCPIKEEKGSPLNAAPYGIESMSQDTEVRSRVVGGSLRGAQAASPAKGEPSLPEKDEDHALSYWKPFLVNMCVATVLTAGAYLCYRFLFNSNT
Description: Protein tyrosine phosphatase 1B (human recombinant), i.e., PTP1B, was purchased from Biomol International LP, Plymouth Meeting, Pennsylvania, PA, USA, and the inhibitory activities of the tested samples were evaluated using the method as described. In a typical procedure, 0.05–0.1 μg of PTP1B (BIOMOL International L.P., Plymouth Meeting, Pennsylvania, PA, USA) and 4 mM p-NPP in a buffer containing 1 mM dithiothreitol, 0.1 M NaCl, 1 mM EDTA, and 50 mM citrate (pH 6.0), with or without test compounds, were added, with 100 μL final volume to each of the 96 wells. After the reaction mixture was incubated at 37 °C for 30 min, 10 M NaOH was added to quench the reaction. PTP1B enzyme activity was determined by the amount of produced p-nitrophenol at 405 nm. The nonenzymatic hydrolysis of the substrate was corrected by measuring the control, which contained no PTP1B enzyme.

HepG2 = tested on: HepG2; design: method as in PMID 23651559; settings: HepG2, MTT method; cited from earlier work
nitric oxide production = tested on: nitric oxide production; design: method as in PMID 26753624; settings: cited from earlier work
sorbitol accumulation = tested on: sorbitol accumulation; design: method as in PMID 17498942; settings: at 100 μM; cited from earlier work
aldose reductase = tested on: aldose reductase; design: method as in PMID 17498942; settings: cited from earlier work

For evodiamine, the “obesity and insulin resistance” value [1] is given as “reduced obesity and insulin resistance” and the “activation of PPARs” value [2] is given as “activate peroxisome proliferator-activated receptors”.

In the case of `CCCCCCCc1cc(=O)c2ccccc2n1C` [Compound 1, 2-heptyl-1-methylquinolin-4-one], the antibacterial activity [3] is given as “no antibacterial activity”, the “effect on negative effects of Candida albicans in vivo” value (Candida albicans) is given as “inhibited the negative effects of Candida albicans in vivo” and the IC50 (α-glucosidase) is given as 92.1 ± 0.8 µM. The “treatment of experimental liver cancer cells in rats” value [4] was “can be used to treat experimental liver cancer cells in rats”, the cytotoxicity (BEL7403) was “no cytotoxicity” and the “treatment of experimental hepatocarcinogenesis” value [5] was “can treat experimental hepatocarcinogenesis”. For the same molecule, the “radio-sensitivity of A549 cells” value (A549 cells [6]) was “enhanced the radio-sensitivity of A549 cells”, the cytotoxicity (BEL7402) was “no cytotoxicity” and the antibacterial activity [7] was “no antibacterial activity”. For the same molecule, the antibacterial activity [8] was “no antibacterial activity”, the cytotoxicity [9] was “no cytotoxicity” and the “cytotoxicity on A549 cells IC50” value (A549 cells [10]; 6 h treatment) was 33.7 ± 2.4 µg/mL. The “cytotoxicity on A549 cells IC50” value (A549 cells [10]; 12 h treatment) was 21.9 ± 1.9 µg/mL, the “cytotoxicity on A549 cells IC50” value (A549 cells [10]; 24 h treatment) was 16.8 ± 2.2 µg/mL and the cytotoxicity (Hela) was “no cytotoxicity”. The IC50 [11] was 24.3 ± 0.8 µM, the cytotoxicity (HepG2) was “no cytotoxicity” and the “in vitro inhibitory effect on nitric oxide production” value (nitric oxide production) was “did not show in vitro inhibitory effect”.

For `CNc1ccccc1C(=O)N1CCc2c([nH]c3ccccc23)C1=O` [rhetsinine], the “inhibition of sorbitol accumulation” value (sorbitol accumulation) is listed as 79.3% and the aldose reductase inhibition (aldose reductase) is listed as “inhibited aldose reductase in a dose-dependent manner”.

In the case of `CC(=CCOc1ccc(C=CCO)cc1)CO` [Compound 2, 3-[4-(4-methylhydroxy-2-butenyloxy)-phenyl]-2-propenol], the IC50 (α-glucosidase) is given as 167.4 ± 1.4 µM, the IC50 [11] is given as 47.7 ± 1.1 µM and the “in vitro inhibitory effect on nitric oxide production” value (nitric oxide production) is given as “did not show in vitro inhibitory effect”.

From publication PMC8233831, “On the Inhibitability of Natural Products Isolated from Tetradium ruticarpum towards Tyrosine Phosphatase 1B (PTP1B) and α-Glucosidase (3W37): An In Vitro and In Silico Study” (Molecules, 2021)
